Source: PubChem BioAssay AID1963831 (Molecular Pharmacology Branch, DTP, NCI, 2024)
“And” between values parts separate entries of the source, which are not always exact repeats. Equal values may be shown once.

Tested on: 889142-216-R-J1-PDC complex spheroid viability
Assay: Anticancer human tumor 889142-216-R-J1-PDC patient-derived bladder carcinoma cell line growth inhibition [POLQ]
Conditions: for viability, T/C: stronger effect = lower value
Protocol: Multicellular complex tumor spheroid response to Polymerase (POL) inhibitors (novobiocin, ART-558, RP6685) in combination with a variety of drugs and investigational agents in selected tumor cell lines
The POL inhibitors (novobiocin, ART-558, and RP6685) were evaluated both individually and in combination with standard of care and investigational anticancer small molecules within a complex spheroid model of solid tumors. . Complex spheroids include a stromal component modeled by human endothelial cells (HUVEC) and fibroblasts modeled by human mesenchymal stem cells (MSCs). The concentration ranges selected for each drug and investigational agent were based upon clinically achievable concentrations if the clinical Cmax of the agent was known.
Compounds. The drugs and investigational agents: novobiocin (NSC847541), ART-558 (NSC835418), RP-6685 (NSC848927), peposertib (NSC802822), ceralasertib (NSC780249), elimusertib (NSC800525), camonsertib (NSC841442), AZD-1390 (NSC803789), olaparib (NSC753686), talazoparib (NSC767125), rucaparib (NSC756644), sotorasib (NSC818433), MRTX-1133 (NSC836407), SN-38 (NSC673596), topotecan (NSC609699), epotoside (NSC141540), doxorubicin (NSC123127), gemcitabine (NSC613327), 5-fluorouracil (NSC19893), paclitaxel (NSC125973), vemurafenib (NSC761431), MSA-2 (NSC828583), SN-011 (NSC837082), adavosertib (NSC754352), prexasertib (NSC758257), carboplatin (NSC241240) and oxaliplatin (NSC266046), were obtained from the National Cancer Institute (NCI) Developmental Therapeutics Program Chemical Repository (21). The FDA-approved anticancer drug set is available from the Developmental Therapeutics Program at https://dtp.cancer.gov/organization/dscb/obtaining/. […] The stock solutions were prepared in dimethyl sulfoxide (DMSO, Sigma-Aldrich, St. Louis, MO, cat. D2650), except for the platinum compounds which were prepared in saline (Quality Biological, Gaithersburg, MD, cat. 114-055-101), at 800-fold the tested concentration and stored at -70 degrees C prior to their use. All drugs and investigational agents were tested over a range starting from a high concentration at or near the clinical Cmax and decreasing in half-log increments. If the clinical Cmax for an agent had not been determined, the highest concentration tested was 10 microM, except for SN-38, which was tested at a high concentration of 1 microM.
Cell Culture. All cells were maintained in an incubator at 37 degrees C and 5% CO2 with 95% humidity. The PDC lines were cultured according to standard operating procedures established by the NCI PDMR (https://pdmr.cancer.gov). Table 3 of the manuscript, lists the cell lines along with the number of the three cell types plated to form the mct-spheroids and media for tumor cell growth. After thawing, all PDC lines, except 997537-175-T-J1-PDC and 415267-285-R-J2-PDC, were cultured in Matrigel-coated flasks prepared with a working solution of 1X Ham's F-12 nutrient mix, without supplementation (Thermo Fisher Scientific, cat. 11765054), 100 U/mL penicillin-streptomycin (Thermo Fisher Scientific, cat. 15140122), and 2.5% Matrigel (Corning Inc., Corning, NY, cat. 354248) for the first three passages. The two PDC lines 997537-175-T-J1-PDC and 415267-285-R-J2-PDC were cultured on uncoated flasks. The 857933-349-R-J2-PDC line was cultured in 6C/Colon 1B media containing advanced DMEM/F-12 (Thermo Fisher Scientific, cat. 12634028), 10 mM HEPES (Thermo Fisher Scientific, cat. 15630080), 1X GlutaMAX supplement (Thermo Fisher Scientific, cat. 35050061), 0.1 mg/mL primocin (InvivoGen, San Diego, CA, cat. ant-pm-2), 10% defined fetal bovine serum, heat inactivated (HyClone Laboratories Inc., Logan, UT, cat. SH30070.03HI), 50% L-WRN conditioned media (ATCC, cat. CRL-3276), 1.25 mM N-Acetyl-L-cysteine (Sigma-Aldrich, cat. A9165), 10 mM nicotinamide (Sigma-Aldrich, cat. N0636), 1X B-27 supplement (Thermo Fisher Scientific, cat. 17504044), 1X N-2 supplement (Thermo Fisher Scientific, cat. […]

[1] = curve of first compound, second compound 0.0316 µM
[2] = curve of first compound, second compound 0.1 µM
[3] = curve of first compound, second compound 0.316 µM
[4] = curve of first compound, second compound 1 µM
[5] = curve of first compound, second compound 3.16 µM
[6] = curve of first compound, second compound 10 µM
[7] = second compound 0.0316 µM, first compound 0.0316 µM
[8] = second compound 0.0316 µM, first compound 0.1 µM
[9] = second compound 0.0316 µM, first compound 0.316 µM
[10] = second compound 0.0316 µM, first compound 1 µM
[11] = second compound 0.0316 µM, first compound 3.16 µM
[12] = second compound 0.0316 µM, first compound 10 µM
[13] = second compound 0.1 µM, first compound 0.0316 µM
[14] = second compound 0.1 µM, first compound 0.1 µM
[15] = second compound 0.1 µM, first compound 0.316 µM
[16] = second compound 0.1 µM, first compound 1 µM
[17] = second compound 0.1 µM, first compound 3.16 µM
[18] = second compound 0.1 µM, first compound 10 µM
[19] = second compound 0.316 µM, first compound 0.0316 µM
[20] = second compound 0.316 µM, first compound 0.1 µM
[21] = second compound 0.316 µM, first compound 0.316 µM
[22] = second compound 0.316 µM, first compound 1 µM
[23] = second compound 0.316 µM, first compound 3.16 µM
[24] = second compound 0.316 µM, first compound 10 µM
[25] = second compound 1 µM, first compound 0.0316 µM
[26] = second compound 1 µM, first compound 0.1 µM
[27] = second compound 1 µM, first compound 0.316 µM
[28] = second compound 1 µM, first compound 1 µM
[29] = second compound 1 µM, first compound 3.16 µM
[30] = second compound 1 µM, first compound 10 µM
[31] = second compound 3.16 µM, first compound 0.0316 µM
[32] = second compound 3.16 µM, first compound 0.1 µM
[33] = second compound 3.16 µM, first compound 0.316 µM
[34] = second compound 3.16 µM, first compound 1 µM
[35] = second compound 3.16 µM, first compound 3.16 µM
[36] = second compound 3.16 µM, first compound 10 µM
[37] = second compound 10 µM, first compound 0.0316 µM
[38] = second compound 10 µM, first compound 0.1 µM
[39] = second compound 10 µM, first compound 0.316 µM
[40] = second compound 10 µM, first compound 1 µM
[41] = second compound 10 µM, first compound 3.16 µM
[42] = second compound 10 µM, first compound 10 µM
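Also: spheroids exposed to compounds for seven days.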
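For viability, T/C in this document: 100% = DMSO vehicle control viability.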

`CC1COCCN1c1cc(C2(S(C)(=N)=O)CC2)nc(-c2ccnc3[nH]ccc23)n1` (stereo unspecified) + Cc1cccc(N(C)C(=O)C2C(O)CCN2c2nc(C)cc(C(F)(F)F)c2C#N)c1 was tested, and the IC50 [1] was 7.04 µM, the IC50 [2] was 10 µM and the IC50 [3] was 3.02 µM. It also gave an IC50 [4] of 2.27 µM, an IC50 [5] of 1.4 µM and an IC50 [6] of 0.966 µM. For the same molecule, the viability, T/C [7] was 109%, the viability, T/C [8] was 97.9% and the viability, T/C [9] was 64.5%. For the same molecule, the viability, T/C [10] was 76%, the viability, T/C [11] was 49.4% and the viability, T/C [12] was 48.4%. The viability, T/C [13] was 92.9%, the viability, T/C [14] was 128% and the viability, T/C [15] was 82%. It also gave a viability, T/C [16] of 58.1%, a viability, T/C [17] of 49.5% and a viability, T/C [18] of 45.8%. It also gave a viability, T/C [19] of 128%, a viability, T/C [20] of 97% and a viability, T/C [21] of 85%. For the same molecule, the viability, T/C [22] was 65.4%, the viability, T/C [23] was 43.7% and the viability, T/C [24] was 41.8%. It also gave a viability, T/C [25] of 111%, a viability, T/C [26] of 106% and a viability, T/C [27] of 70.7%. The viability, T/C [28] was 60.1%, the viability, T/C [29] was 50% and the viability, T/C [30] was 41.5%. For the same molecule, the viability, T/C [31] was 92.4%, the viability, T/C [32] was 94.4% and the viability, T/C [33] was 72.3%. The viability, T/C [34] was 53.9%, the viability, T/C [35] was 44.5% and the viability, T/C [36] was 41.5%. The viability, T/C [37] was 85.6%, the viability, T/C [38] was 94.6% and the viability, T/C [39] was 89.4%. The viability, T/C [40] was 48.8%, the viability, T/C [41] was 50.1% and the viability, T/C [42] was 38.8%.

With `Nc1ccc(C#CCN(C(=O)Cc2ncc(C(F)(F)F)cc2C(F)(F)F)c2ccc(F)cc2)nn1` the viability, T/C (compound 0.1 µM) was 95.3% [middle of 13 runs], the viability, T/C (compound 10 µM) was 102% [middle of 13 runs] and the IC50 (compound alone, run of 01/19/2024) was > 10 µM.

In the case of `CC(C)n1c(=O)n(C)c2cnc3cc(F)c(-c4ccc(OCCCN5CCCCC5)nc4)cc3c21` + Nc1ccc(C#CCN(C(=O)Cc2ncc(C(F)(F)F)cc2C(F)(F)F)c2ccc(F)cc2)nn1, the IC50 [1] is reported as > 10 µM, the IC50 [2] is reported as > 10 µM and the IC50 [3] is reported as > 10 µM. For the same molecule, the IC50 [4] was > 10 µM, the IC50 [5] was > 10 µM and the IC50 [6] was > 10 µM. It also gave a viability, T/C [7] of 96.5%, a viability, T/C [8] of 113% and a viability, T/C [9] of 119%. It also gave a viability, T/C [10] of 79.2%, a viability, T/C [11] of 65.5% and a viability, T/C [12] of 95.2%. It also gave a viability, T/C [13] of 122%, a viability, T/C [14] of 89.3% and a viability, T/C [15] of 70.7%. The viability, T/C [16] was 84%, the viability, T/C [17] was 62% and the viability, T/C [18] was 76.1%. For the same molecule, the viability, T/C [19] was 95.8%, the viability, T/C [20] was 85.1% and the viability, T/C [21] was 79.9%. It also gave a viability, T/C [22] of 80.7%, a viability, T/C [23] of 56.4% and a viability, T/C [24] of 95.8%. For the same molecule, the viability, T/C [25] was 91.4%, the viability, T/C [26] was 80.3% and the viability, T/C [27] was 104%. It also gave a viability, T/C [28] of 88.7%, a viability, T/C [29] of 57.3% and a viability, T/C [30] of 97.8%. For the same molecule, the viability, T/C [31] was 85.6%, the viability, T/C [32] was 72.8% and the viability, T/C [33] was 80.5%. For the same molecule, the viability, T/C [34] was 88%, the viability, T/C [35] was 70.1% and the viability, T/C [36] was 113%. For the same molecule, the viability, T/C [37] was 79.3%, the viability, T/C [38] was 97.8% and the viability, T/C [39] was 88.6%. It also gave a viability, T/C [40] of 79.7%, a viability, T/C [41] of 59.7% and a viability, T/C [42] of 97.2%.

With `CC1COCCN1c1cc(C2(O)CC3CCC(C2)O3)c2cnn(-c3ccn[nH]3)c2n1` (stereo unspecified) the viability, T/C (compound 0.0316 µM) was 57.4% and 69.5% and 69.9%, the viability, T/C (compound 0.1 µM) was 44% and 49.5% and 54.2% and the viability, T/C (compound 0.316 µM) was 43.3% and 37.3% and 38.3%. For the same molecule, the viability, T/C (compound 1 µM) was 32.6% and 33.5% and 34.5%, the viability, T/C (compound 3.16 µM) was 26% and 30.2% and 30.3% and the viability, T/C (compound 10 µM) was 14.7% and 11.1% and 17.2%. For the same molecule, the IC50 (curve of compound) was 0.0757 µM and 0.135 µM and 0.153 µM.

For `CCCS(=O)(=O)Nc1ccc(F)c(C(=O)c2c[nH]c3ncc(-c4ccc(Cl)cc4)cc23)c1F`, the viability, T/C (compound 0.0316 µM) was 74.9% and 85.2% and 120%, the viability, T/C (compound 0.1 µM) was 89.7% and 99.9% and 114% and the viability, T/C (compound 0.316 µM) was 84.1% and 105% and 81.2%. For the same molecule, the viability, T/C (compound 1 µM) was 96.2% and 106% and 87.5%, the viability, T/C (compound 3.16 µM) was 62.4% and 72.5% and 71.5% and the viability, T/C (compound 10 µM) was 50% and 43.1% and 36.3%. The IC50 (curve of compound) was > 10 µM and 7.63 µM and 6.63 µM.
